# Biological target: T1, PDK1 kinase (Homo sapiens, UniProt O15530)
# T1 sequence (O15530 1-556): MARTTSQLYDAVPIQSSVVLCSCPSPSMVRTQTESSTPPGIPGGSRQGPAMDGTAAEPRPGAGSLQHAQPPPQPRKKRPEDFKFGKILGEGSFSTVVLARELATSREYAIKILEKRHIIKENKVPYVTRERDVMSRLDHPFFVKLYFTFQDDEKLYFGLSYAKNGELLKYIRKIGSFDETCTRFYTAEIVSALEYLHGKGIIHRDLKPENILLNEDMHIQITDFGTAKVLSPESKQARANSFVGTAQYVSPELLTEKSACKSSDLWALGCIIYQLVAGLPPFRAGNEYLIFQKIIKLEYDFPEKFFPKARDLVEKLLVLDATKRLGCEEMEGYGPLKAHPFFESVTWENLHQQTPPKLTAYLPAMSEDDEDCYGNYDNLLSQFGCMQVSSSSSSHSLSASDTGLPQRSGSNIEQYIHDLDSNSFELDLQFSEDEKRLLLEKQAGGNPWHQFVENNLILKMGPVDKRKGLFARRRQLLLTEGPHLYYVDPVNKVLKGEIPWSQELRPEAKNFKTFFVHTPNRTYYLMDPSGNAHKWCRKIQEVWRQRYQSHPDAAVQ
# Experiment: PDK1 Kinase Alpha Screen Assay
# Type: biochemical
# Conditions: Table 1; 10 μM ATP, 50 nM PDK1-4 peptide
# Procedure, shortened: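 PDK1 phosphorylation of 50 nM biotinylated PDK1-4 peptide with 10 μM ATP in 50 mM Tris pH 7.5, 10 mM MgCl2, 0.1% BSA, 0.01% Tween-20, 2 mM DTT, 2.5% DMSO, 3-18 h. Stopped with EDTA; phosphopeptide detected by AlphaScreen using phospho-(Ser/Thr) PKA substrate antibody on protein A acceptor and streptavidin donor beads, overnight at room temperature.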
row,IC50,Structure (SMILES)
1,< 5 µM,"COc1cncc(-c2cc(OC)c3nc(Nc4cc(CN(C)C)cc(NC(C)=O)c4)ncc3c2)n1 [Example 110, N-(3-((dimethylamino)-methyl)-5-(8-methoxy-6-(6-methoxypyrazin-2-yl)quinazolin-2-ylamino)phenyl)acetamide]"
2,< 5 µM,"C#Cc1ccc2nc(Nc3ccc(C(=O)NC(C)C)cc3)ncc2c1 [Example 72, 4-(6-ethynylquinazolin-2-ylamino)-N-isopropyl-benzamide]"
3,< 5 µM,"C#Cc1ccc2nc(Nc3ccc(S(N)(=O)=O)cc3)ncc2c1 [Example 10, 4(6-Ethynylquinazolin-2-ylamino)benzenesulfonamide]"
4,< 5 µM,"COc1cc(-c2nccs2)c(Cl)c2cnc(Nc3ccc(C(=O)NC(C)C)cc3)nc12 [Example 119, 4-(5-chloro-8-methoxy-6-(thiazol-2-yl)quinazolin-2-ylamino)-N-isopropyl-benzamide]"
5,< 5 µM,"Fc1c(Br)ccc2nc(Nc3ccc(N4CCOCC4)cc3)ncc12 [Example 23, 6-Bromo-5-fluoro-N-(4-morpholinophenyl)quinazolin-2-amine]"
6,< 5 µM,"COc1cc2nc(Nc3ccc(N4CCOCC4)cc3)ncc2cc1-c1cn[nH]c1 [Example 150, 7-methoxy-N-(4-morpholinophenyl)-6-(1H-pyrazol-4-yl)quinazolin-2-amine]"
7,< 5 µM,"C#Cc1ccc2nc(Nc3cc(CN)cc(NC(C)=O)c3)ncc2c1 [Example 137, N-(3-(aminomethyl)-5-(6-ethynylquinazolin-2-ylamino)phenyl)acetamide]"
8,< 5 µM,"C#Cc1cc2cnc(Nc3ccc(S(=O)(=O)N4CCOCC4)cc3)nc2cc1OC [Example 50, 6-ethynyl-7-methoxy-N-(4-(morpholinosulfonyl)-phenyl)-quinazolin-2-amine]"
9,< 5 µM,"COc1cc(-c2cncnc2)cc2cnc(Nc3cc(CN(C)C)cc(NC(C)=O)c3)nc12 [Example 95, N-(3-((dimethylamino)-methyl)-5-(8-methoxy-6-(pyrimidin-5-yl)-quinazolin-2-ylamino)-phenyl)acetamide]"
10,< 5 µM,"COc1cc(-c2nccs2)c(Cl)c2cnc(Nc3ccc(C(=O)N4CCOCC4)cc3)nc12 [Example 117, (4-(5-chloro-8-methoxy-6-(thiazol-2-yl)quinazolin-2-ylamino)phenyl)-(morpholino)-methanone]"
11,< 5 µM,"CC(=O)Nc1cc(CN2CCOCC2)cc(Nc2ncc3cc(-c4cnoc4)ccc3n2)c1 [Example 136, N-(3-(6-(isoxazol-4-yl)quinazolin-2-ylamino)-5-(morpholinomethyl)-phenyl)-acetamide]"
12,< 5 µM,"N#Cc1cc(CN2CCOCC2)cc(Nc2ncc3cc(Br)ccc3n2)c1 [Example 151, 3-(6-bromoquinazolin-2-ylamino)-5-(morpholino-methyl)benzonitrile]"
13,< 5 µM,"C#Cc1ccc2nc(Nc3cc(CN4CCOCC4)cc(NC(C)=O)c3)ncc2c1F [Example 161, N-(3-(6-ethynyl-5-fluoro-quinazolin-2-ylamino)-5-(morpholinomethyl)-phenyl)-acetamide]"
14,< 5 µM,"COc1cc(Br)c(Cl)c2cnc(Nc3ccc(C(=O)NC(C)C)cc3)nc12 [Example 89, 4-(6-bromo-5-chloro-8-methoxyquinazolin-2-ylamino)-N-isopropyl-benzamide]"
15,< 5 µM,"C#Cc1ccc2nc(Nc3cccc(S(N)(=O)=O)c3)ncc2c1 [Example 60, 3-(6-ethynylquinazolin-2-ylamino)benzene-sulfonamide]"
16,< 5 µM,"Brc1ccc2nc(Nc3ccc(N4CCOCC4)cc3)ncc2c1 [Example 77, 6-bromo-N-(4-morpholino-phenyl)quinazolin-2-amine]"
17,< 5 µM,"C#Cc1ccc2nc(Nc3ccccc3)ncc2c1 [Example 138, 6-ethynyl-N-phenyl-quinazolin-2-amine]"
18,< 5 µM,"C#Cc1ccc2nc(Nc3ccc(C(=O)NC(C)C)cc3)ncc2c1Cl [Example 106, 4-(5-chloro-6-ethynyl-quinazolin-2-ylamino)-N-isopropylbenzamide]"
19,< 5 µM,"CC(C)NC(=O)c1ccc(Nc2ncc3cc(-c4nccs4)ccc3n2)cc1 [Example 12, N-Isopropyl-4-(6-(thiazol-2-yl)quinazolin-2-ylamino)benzamide]"
20,< 5 µM,"C#Cc1ccc2nc(Nc3ccc(N4CCOCC4)cc3)ncc2c1Cl [Example 99, 5-chloro-6-ethynyl-N-(4-morpholinophenyl)quinazolin-2-amine]"
21,< 5 µM,"COc1cc2nc(Nc3cccc(-n4cnnn4)c3)ncc2cc1-c1nccs1 [Example 112, N-(3-(1H-tetrazol-1-yl)phenyl)-7-methoxy-6-(thiazol-2-yl)quinazolin-2-amine]"
22,5 to 10 µM,"COc1ncccc1-c1ccc2nc(Nc3cc(CN(C)C)cc(NC(C)=O)c3)ncc2c1 [Example 93, N-(3-((dimethylamino)-methyl)-5-(6-(2-methoxy-pyridin-3-yl)quinazolin-2-ylamino)phenyl)acetamide]"

# Source: patent US20100216767A1, “QUINAZOLINES FOR PDK1 INHIBITION” (priority 2006, published 2010)
